Results on 1 compound are retold here after US20240374609A1, “NITROSAMINE IMPURITY, VARENICLINE PHARMACEUTICAL COMPOSITION CAPABLE OF REDUCING GENERATION OF NITROSAMINE IMPURITIES AND PREPARATION AND USE THEREOF” (VIWIT PHARMACEUTICALCO., LTD., priority 2021, published 2024).

For the assay, the system named is Tetranychus cinnabarinus. The assay is described as follows: Leaf-disc spraying method, insecticidal activity. It counts as in vivo. To be noted: 500 mg/L, spray 2.5 mL, investigated after 24 h, blank control 0%, read-out: mortality rate. Here is the method:
The bactericidal or insecticidal activity of the nitrosamine impurity compound P08 was determined according to the existing technical standards or specifications (e.g., Chinese agricultural industry standard NY/T 1156.4-2006, pesticides guidelines for laboratory bioactivity tests, bactericide, part 4: potted plant test for fungicide control of powdery mildew on wheat; Chinese agricultural industry standard NY/T 1156.5-2006, pesticides guidelines for laboratory bioactivity tests, bactericide, part 5: detached leaf test for fungicide inhibition of Rhizoctonia solani on faba bean; Chinese agricultural industry standard […], pesticides guidelines for laboratory bioactivity tests, insecticide, part 6: the immersion test for insecticide activity; Chinese agricultural industry standard NY/T 1154.9-2008, pesticides guidelines for laboratory bioactivity tests, insecticide, part 9: spraying method).
According to the Chinese agricultural industry standard NYT 1154.13-2008, pesticides guidelines for laboratory bioactivity tests, insecticide, part 13: leaf-disc spraying method, the Tetranychus cinnabarinus were inoculated on a leaf-disc of faba bean as the biological test materials. […]

On to `O=NN1CC2CC(C1)c1cc3nccnc3cc12` [P08], for which the mortality – broadly, the share of the test organisms that died – at 500 µg/mL came to 19.6%.
